Measured values taken from patent publication US20090270394A1, “CYCLYLAMINE DERIVATIVES AS CALCIUM CHANNEL BLOCKERS” (priority 2008, published 2009).
pIC50: −log10 of the molar value.

How the values were obtained:
Human Cav2.2 channels = molecular target: T1, Human Cav2.2 channels (Homo sapiens, UniProt Q00975); assay: Fluorescent assay for Cav2.2 channels using potassium depolarization to initiate channel opening; format: cell-based; settings: for inhibition at 10 µM: 10 μM compound, read-out: Cav 2.2 Activity % Inh at 10 μM; for inhibition at 30 µM: 30 μM compound, read-out: Cav 2.2 Activity % Inh at 30 μM; for pIC50: 30 mM K (block of open and inactivated channels), read-out: Cav 2.2 Activity IC50 at 30 mM K
T1 construct: expressed in transfected cells
T1 sequence (Q00975 whole entry): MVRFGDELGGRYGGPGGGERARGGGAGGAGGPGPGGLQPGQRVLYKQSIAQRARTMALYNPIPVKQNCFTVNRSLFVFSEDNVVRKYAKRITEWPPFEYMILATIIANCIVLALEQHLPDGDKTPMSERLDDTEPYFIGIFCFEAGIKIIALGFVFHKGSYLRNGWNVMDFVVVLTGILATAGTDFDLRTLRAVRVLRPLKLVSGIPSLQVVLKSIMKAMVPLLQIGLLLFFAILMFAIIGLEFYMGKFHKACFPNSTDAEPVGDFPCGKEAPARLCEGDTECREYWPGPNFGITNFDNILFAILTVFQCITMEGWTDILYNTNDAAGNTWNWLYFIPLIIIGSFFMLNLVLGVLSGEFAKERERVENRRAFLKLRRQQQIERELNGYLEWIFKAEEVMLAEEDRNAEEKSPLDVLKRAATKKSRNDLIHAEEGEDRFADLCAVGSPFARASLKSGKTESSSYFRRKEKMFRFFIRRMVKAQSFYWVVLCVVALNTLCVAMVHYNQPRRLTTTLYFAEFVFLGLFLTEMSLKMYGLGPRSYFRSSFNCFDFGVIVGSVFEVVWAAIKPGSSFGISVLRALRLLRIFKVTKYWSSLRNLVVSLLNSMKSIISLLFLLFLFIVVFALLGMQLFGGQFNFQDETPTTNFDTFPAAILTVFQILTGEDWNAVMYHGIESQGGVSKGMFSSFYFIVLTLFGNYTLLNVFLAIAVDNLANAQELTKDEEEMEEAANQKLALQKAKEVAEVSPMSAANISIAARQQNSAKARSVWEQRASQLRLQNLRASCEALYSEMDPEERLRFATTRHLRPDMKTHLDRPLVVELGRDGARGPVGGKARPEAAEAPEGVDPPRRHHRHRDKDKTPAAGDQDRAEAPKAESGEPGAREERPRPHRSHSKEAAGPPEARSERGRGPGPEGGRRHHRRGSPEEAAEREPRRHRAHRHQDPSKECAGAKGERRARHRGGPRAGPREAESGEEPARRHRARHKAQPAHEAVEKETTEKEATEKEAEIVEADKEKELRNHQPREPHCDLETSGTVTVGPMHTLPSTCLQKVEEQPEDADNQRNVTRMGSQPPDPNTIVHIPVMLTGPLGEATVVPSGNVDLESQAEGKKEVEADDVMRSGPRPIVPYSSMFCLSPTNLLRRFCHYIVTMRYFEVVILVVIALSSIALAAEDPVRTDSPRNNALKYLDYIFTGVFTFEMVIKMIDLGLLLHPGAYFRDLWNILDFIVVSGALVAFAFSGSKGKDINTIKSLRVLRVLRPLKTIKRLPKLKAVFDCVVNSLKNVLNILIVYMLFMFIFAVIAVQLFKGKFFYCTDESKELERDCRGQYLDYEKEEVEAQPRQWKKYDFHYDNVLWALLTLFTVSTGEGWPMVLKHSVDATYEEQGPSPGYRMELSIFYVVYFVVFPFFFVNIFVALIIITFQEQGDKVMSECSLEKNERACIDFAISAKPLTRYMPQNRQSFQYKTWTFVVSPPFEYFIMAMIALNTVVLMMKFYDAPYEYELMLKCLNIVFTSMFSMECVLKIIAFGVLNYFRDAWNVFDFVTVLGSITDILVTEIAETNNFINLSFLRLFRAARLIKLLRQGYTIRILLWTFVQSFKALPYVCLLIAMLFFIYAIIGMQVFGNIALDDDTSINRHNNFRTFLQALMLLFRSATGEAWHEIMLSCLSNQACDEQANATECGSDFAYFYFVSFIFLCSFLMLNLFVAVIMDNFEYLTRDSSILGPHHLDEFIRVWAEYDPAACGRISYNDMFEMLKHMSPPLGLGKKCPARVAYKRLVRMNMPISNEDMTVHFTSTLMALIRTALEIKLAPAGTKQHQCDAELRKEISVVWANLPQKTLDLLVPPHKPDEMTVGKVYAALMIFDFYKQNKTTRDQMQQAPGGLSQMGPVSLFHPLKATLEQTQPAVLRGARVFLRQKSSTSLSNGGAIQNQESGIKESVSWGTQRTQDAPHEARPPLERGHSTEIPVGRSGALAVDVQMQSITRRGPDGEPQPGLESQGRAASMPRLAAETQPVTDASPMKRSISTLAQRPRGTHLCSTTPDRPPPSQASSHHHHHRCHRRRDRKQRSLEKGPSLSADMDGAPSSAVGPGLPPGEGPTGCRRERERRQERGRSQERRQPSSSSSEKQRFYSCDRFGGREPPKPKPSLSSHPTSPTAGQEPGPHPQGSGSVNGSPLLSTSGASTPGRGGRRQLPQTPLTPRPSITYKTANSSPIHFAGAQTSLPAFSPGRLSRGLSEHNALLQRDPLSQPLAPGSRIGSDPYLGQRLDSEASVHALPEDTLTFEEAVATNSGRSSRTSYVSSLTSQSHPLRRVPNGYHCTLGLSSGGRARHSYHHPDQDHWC
T1 sequence (P54289 25-1103 partner): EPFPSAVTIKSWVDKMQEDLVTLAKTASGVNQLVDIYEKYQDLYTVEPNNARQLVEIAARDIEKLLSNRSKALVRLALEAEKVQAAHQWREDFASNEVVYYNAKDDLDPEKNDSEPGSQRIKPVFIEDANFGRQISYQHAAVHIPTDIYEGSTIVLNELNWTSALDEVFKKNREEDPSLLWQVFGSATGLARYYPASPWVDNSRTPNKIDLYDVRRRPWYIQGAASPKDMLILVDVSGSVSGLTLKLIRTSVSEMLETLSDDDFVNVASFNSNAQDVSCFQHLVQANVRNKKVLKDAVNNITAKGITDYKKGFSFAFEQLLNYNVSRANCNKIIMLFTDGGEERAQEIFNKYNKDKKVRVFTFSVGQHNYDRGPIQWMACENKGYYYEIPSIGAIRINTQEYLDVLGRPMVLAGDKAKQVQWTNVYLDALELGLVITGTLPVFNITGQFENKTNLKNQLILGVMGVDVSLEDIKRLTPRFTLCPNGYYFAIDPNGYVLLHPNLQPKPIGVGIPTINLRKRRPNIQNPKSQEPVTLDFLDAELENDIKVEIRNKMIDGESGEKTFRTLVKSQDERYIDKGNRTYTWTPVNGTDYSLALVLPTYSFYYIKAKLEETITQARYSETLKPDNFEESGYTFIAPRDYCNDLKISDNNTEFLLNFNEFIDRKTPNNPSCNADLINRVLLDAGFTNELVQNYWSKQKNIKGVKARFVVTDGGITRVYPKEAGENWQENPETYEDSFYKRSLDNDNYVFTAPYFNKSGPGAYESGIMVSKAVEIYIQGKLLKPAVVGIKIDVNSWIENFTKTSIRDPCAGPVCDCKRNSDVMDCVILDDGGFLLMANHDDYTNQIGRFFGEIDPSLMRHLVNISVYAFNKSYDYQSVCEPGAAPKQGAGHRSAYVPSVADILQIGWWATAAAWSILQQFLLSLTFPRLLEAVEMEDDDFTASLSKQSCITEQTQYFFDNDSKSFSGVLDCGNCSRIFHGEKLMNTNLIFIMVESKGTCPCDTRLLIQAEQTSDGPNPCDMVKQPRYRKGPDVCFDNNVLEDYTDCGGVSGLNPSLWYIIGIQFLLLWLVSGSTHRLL
T1 sequence (P54284 whole entry partner): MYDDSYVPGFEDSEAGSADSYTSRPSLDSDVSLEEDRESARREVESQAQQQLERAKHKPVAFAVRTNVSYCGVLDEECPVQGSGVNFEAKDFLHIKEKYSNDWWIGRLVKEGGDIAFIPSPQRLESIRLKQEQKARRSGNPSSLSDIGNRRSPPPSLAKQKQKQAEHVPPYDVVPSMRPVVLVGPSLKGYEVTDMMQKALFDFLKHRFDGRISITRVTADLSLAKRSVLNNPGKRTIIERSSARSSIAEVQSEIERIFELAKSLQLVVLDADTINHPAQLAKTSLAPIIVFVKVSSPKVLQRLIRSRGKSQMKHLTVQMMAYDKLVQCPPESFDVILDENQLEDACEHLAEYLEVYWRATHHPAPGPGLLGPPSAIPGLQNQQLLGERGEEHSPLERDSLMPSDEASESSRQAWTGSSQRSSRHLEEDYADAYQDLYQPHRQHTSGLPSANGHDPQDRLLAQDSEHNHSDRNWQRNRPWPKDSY
Method in brief: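 HEK293 cells stably expressing human Cav2.2 with alpha2-delta and beta subunits plus Kir2.3, dye-loaded, then held 30 min at 25° C. in 4, 12, 25 or 30 mM K+ pre-polarization buffer with compound.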

T-type calcium channels = settings: cited from earlier work

| inhibition at 10 µM (Human Cav2.2 channels) [%] | inhibition at 30 µM (Human Cav2.2 channels) [%] | pIC50 (Human Cav2.2 channels) | SMILES | fold selective for T-type over L-type channels (T-type calcium channels) |
| --- | --- | --- | --- | --- |
| 100 | 101 | 6.92 | COc1ccc(CNC(=O)C2(NC(=O)c3cc(C(C)(C)C)c(OC)c(C(C)(C)C)c3)CC2)cc1 [Compound 110, 3,5-di-tert-butyl-4-methoxy-N-(1-(4-methoxybenzylcarbamoyl)cyclopropyl)benzamide] |  |
| 71.8 | 106 | 6.26 | CC(C)(C)c1cc(C(=O)NC2(C(=O)Nc3ccccc3)CCCCC2)cc(C(C)(C)C)c1O [Compound 111, 3,5-di-tert-butyl-4-hydroxy-N-(1-(phenylcarbamoyl)cyclohexyl)benzamide] |  |
| 96.7 | 102 | 6.86 | CC(C)(C)c1cc(C(=O)NC2(C(=O)NCc3ccc(S(C)(=O)=O)cc3)CCCCC2)cc(C(C)(C)C)c1O [Compound 112, 3,5-di-tert-butyl-4-hydroxy-N-(1-(4-(methylsulfonyl)benzylcarbamoyl)cyclohexyl)benzamide] |  |
| 90.8 | 92.4 | 7.49 | COc1ccc(CNC(=O)C2(NC(=O)c3cc(C(C)(C)C)c(OC)c(C(C)(C)C)c3)CCOCC2)cc1 [Compound 114, 4-(3,5-di-tert-butyl-4-methoxybenzamido)-N-(4-methoxybenzyl)tetrahydro-2H-pyran-4-carboxamide] |  |
| 53.5 | 73.4 |  | COc1ccc(CNC(=O)C2(NC(=O)c3cc(C(C)(C)C#N)cc(C(C)(C)C#N)c3)CCOCC2)cc1 [Compound 115, 4-(3,5-bis(2-cyanopropan-2-yl)benzamido)-N-(4-methoxybenzyl)tetrahydro-2H-pyran-4-carboxamide] |  |
| 92.5 | 98 | 6.03 | Cc1cc(CNC(=O)C2(NC(=O)c3cc(C(C)(C)C)c(O)c(C(C)(C)C)c3)CC2)no1 [Compound 116, 3,5-di-tert-butyl-4-hydroxy-N-(1-((5-methylisoxazol-3-yl)methylcarbamoyl)cyclopropyl)benzamide] |  |
| 74.2 | 101 | 5.96 | CC(C)(C)c1cc(C(=O)NC2(C(=O)NCc3ccc(NS(C)(=O)=O)cc3)CC2)cc(C(C)(C)C)c1O [Compound 117, 3,5-di-tert-butyl-4-hydroxy-N-(1-(4-(methylsulfonamido)benzylcarbamoyl)cyclopropyl)benzamide] |  |
| 75.4 | 77.6 | 6.41 | COc1ccc(C(=O)NC2(C(=O)NCc3cccc(C(F)(F)F)c3)CCCCC2)cc1C(C)(C)C#N [Compound 118, 3-(2-cyanopropan-2-yl)-4-methoxy-N-(1-(3-(trifluoromethyl)benzylcarbamoyl)cyclohexyl)benzamide] |  |
| 63.1 |  |  | CC(C)(C#N)c1cc(C(=O)NC2(C(=O)NCc3cccc(C(F)(F)F)c3)CCCCC2)ccn1 [Compound 119, 2-(2-cyanopropan-2-yl)-N-(1-(3-(trifluoromethyl)benzylcarbamoyl)cyclohexyl)isonicotinamide] |  |
| 61.2 |  |  | CC(C)(C)c1cc(C(=O)NC2(C(=O)Nc3cccc(C(F)(F)F)c3)CCOCC2)ccn1 [Compound 120, 2-tert-butyl-N-(4-(3-(trifluoromethyl)phenylcarbamoyl)tetrahydro-2H-pyran-4-yl)isonicotinamide] |  |
| 18.6 | 70.8 |  | CC(C)(C(N)=O)c1cccc(C(=O)NC2(C(=O)NCc3cccc(C(F)(F)F)c3)CCCCC2)c1 [Compound 121, 3-(1-amino-2-methyl-1-oxopropan-2-yl)-N-(1-(3-(trifluoromethyl)benzylcarbamoyl)cyclohexyl)benzamide] |  |
| 45.2 | 80.5 |  | CC(C)(C#N)c1ccc(C(=O)NC2(C(=O)NCc3ccccc3)CCCCC2)cc1 [Compound 122, N-(1-(benzylcarbamoyl)cyclohexyl)-4-(2-cyanopropan-2-yl)benzamide] |  |
| 53.5 | 27.3 |  | CC(C)(C#N)c1cccc(C(=O)NC2(C(=O)NCc3ccccc3)CCCCC2)c1 [Compound 123, N-(1-(benzylcarbamoyl)cyclohexyl)-3-(2-cyanopropan-2-yl)benzamide] |  |
| 84.2 | 74 | 6.09 | CC(C)(C#N)c1cccc(C(=O)NC2(C(=O)NCc3cccc(C(F)(F)F)c3)CCCCC2)c1 [Compound 124, 3-(2-cyanopropan-2-yl)-N-(1-(3-(trifluoromethyl)benzylcarbamoyl)cyclohexyl)benzamide] |  |
| 89.6 | 85.8 | 6.13 | CC(C)(C)NC(=O)C(C)(C)c1ccc(C(=O)NC2(C(=O)NCc3ccccc3)CCCCC2)cc1 [Compound 125, N-(1-(benzylcarbamoyl)cyclohexyl)-4-(1-(tert-butylamino)-2-methyl-1-oxopropan-2-yl)benzamide] |  |
| 102 | 104 | 6.56 | CC(C)(C)NC(=O)C(C)(C)c1ccc(C(=O)NC2(C(=O)NCc3cccc(C(F)(F)F)c3)CCCCC2)cc1 [Compound 126, 4-(1-(tert-butylamino)-2-methyl-1-oxopropan-2-yl)-N-(1-(3-(trifluoromethyl)benzylcarbamoyl)cyclohexyl)benzamide] |  |
|  |  |  | COCC(=O)O[C@]1(CCN(C)CCCc2nc3ccccc3[nH]2)CCc2cc(F)ccc2[C@@H]1C(C)C [Mibefradil] | 10-30 fold |

| SMILES | inhibition at 10 µM (Human Cav2.2 channels) [%] | inhibition at 30 µM (Human Cav2.2 channels) [%] | pIC50 (Human Cav2.2 channels) | fold selective for T-type over L-type channels (T-type calcium channels) |
| --- | --- | --- | --- | --- |
| COc1ccc(CNC(=O)C2(NC(=O)c3cc(C(C)(C)C)nc(C(C)(C)C)c3)CCOCC2)cc1 [Compound 113, 2,6-di-tert-butyl-N-(4-(4-methoxybenzylcarbamoyl)tetrahydro-2H-pyran-4-yl)isonicotinamide] | 79 | 93 | 7.23 |  |
